Patent publication US11034663B2, “Tetrahydronaphtho[1,2-b]furan-2(3H)-one derivatives and preparation and uses thereof” (SHANGHAI QINGDONG BIOTECHNOLOGY CO., LTD., priority 2017, dated 2021)
“Also recorded” adds a separate entry of the source.

Tested on: adjuvant-induced arthritis in rats
Assay: Therapeutic effect on adjuvant-induced arthritis in rats
Format: in vivo, Wistar male rats
Procedure: Wistar male rats, weighing 160-180 g, were raised in the SPF animal room of Shanghai University of Traditional Chinese Medicine, and employed for experiment following at least one week of culture, where the culture was performed at a temperature of 22+1° C. and a humidity of 55±5% under a 12-h light-dark cycle. The feed and water were sterilized and then freely taken by rats. All experiments were carried out in strict accordance with the relevant regulations for experimental animals.
Bacille Calmette-Guerin (BCG) H37Ra was purchased from Difco Co., Ltd. (US); and the YSL-7A Plethysmometer (paw volume) Meter was produced by the equipment station of Shandong Academy of Medical Sciences.
The establishment of the adjuvant-induced arthritis rat model and the administration therefor were described performed as follows. Liquid paraffin was sterilized at high temperature and pressure, added with a 10 mg/mL aqueous BCG solution and emulsified under repeated suction to produce a Freund's complete adjuvant (CFA) emulsion. In the experiment, individual rats were sensitized by intradermal injection of 0.1 mL of the CFA emulsion at the left hind paw to induce adjuvant arthritis in the limbs.
The grouping and administration were performed as follows. The male wistar rats were randomly divided into four groups according to weight each for 10 rats.
The rats in the blank control group were treated with 0.3% CMC solution daily by intragastric administration.
The rats in the arthritis solvent control group were similarly treated with 0.3% CMC solution daily by intragastric administration.
Rats from the two administration groups were respectively treated with 5 mg/kg and 20 mg/kg of compound 59 by oral administration once a day.
In addition to the blank control group, the rats in the other three groups were sensitized individually by […] injection of 0.1 mL of an adjuvant containing 10 mg/mL inactivated bacillus strain at the left hind foot pad. From the 10th day after the occurrence of arthritis, the rats in the administration groups were orally administered for therapeutic pharmacodynamic observation.
The therapeutic effect was monitored as follows. The rats were observed every day for the development of arthritis symptoms and weighed once every 2-3 days. A 5-level standard scoring system based on the clinical disease index was employed to evaluate the inflammation, where “0”: no redness and swelling; “1”: redness and swelling at the small toe joints; “2”: swelling at the toe joints and toes; “3”: swelling at feet below the ankle joint; and “4”: swelling at the entire feet including ankle joint. The two hind feet were measured for the volume to evaluate the swelling degree.

Cc1cc(OCc2ccccc2Br)c(C)c2c1CC[C@H]1C(CN(C)C)C(=O)O[C@@H]21 (mixture of isomers) [Compound 59, (3R/S,3aS,9bR)-8-(2-bromobenzyloxy)-3-dimethylaminomethyl-6,9-dimethyl-3a, 4,5,9b-tetrahydronaphtho [1,2-b]furan-2(3H)-one]
effect on weight of rats with adjuvant-induced arthritis (5 mg/kg and 20 mg/kg, oral, once a day, from the 10th day after occurrence of arthritis, FIG. 1): showed similar effect on the weight; also recorded: no significant effect on the weight loss | disease index of arthritis (clinical disease index, 0-4 score) (5 mg/kg and 20 mg/kg, oral, once a day, compared to the model group, P<0.05, FIG. 2): significantly lowered | secondary foot lesions (foot swelling, opposite side) (5 mg/kg and 20 mg/kg, oral, once a day, compared to the model group, P<0.05, FIG. 3): significantly inhibited; also recorded: alleviating | primary foot lesions (foot swelling, sensitization side) (5 mg/kg and 20 mg/kg, oral, once a day, compared to the model group, P<0.05, FIG. 4): significantly inhibited; also recorded: alleviating | overall therapeutic effect on adjuvant-induced arthritis in rats (daily oral administration): remarkable therapeutic effect
